Consider 27 molecules from US10766869B2, “Triazoles for the treatment of demyelinating dieases” (Vertex Pharmaceuticals Incorporated, priority 2015, dated 2020).

This assay relates to primary rat mixed cortical cells. The experiment in a line: In vitro myelination assay (MBP positive myelin strands, fold myelin pixels above background). The conditions noted are these: Rattus norvegicus, read-out: Fold myelin pixels above background relative to baseline of no added compound; for fold induction at 1 µM: 1.0 μM compound; for fold induction at 10 µM: 10.0 μM compound. Type of assay: cell-based. A digest of the protocol:
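P1 rat mixed cortical cultures (neurons, OPCs, oligodendrocytes, astrocytes, microglia) grown 14 days at 37 °C with compound, half-medium refreshed with compound on days 6 and 10. Fixed cells stained for MBP; MBP-positive myelin strand pixels per well quantified by automated imaging, reported as fold over no-compound baseline at 1.0 and 10.0 μM.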

Regarding `Cc1cc(Nc2ncn(-c3cccc(C(F)(F)F)c3)n2)cc(N2CCC(N3CCOCC3)CC2)c1` [Compound 854, N-[3-methyl-5-(4-morpholino-1-piperidyl)phenyl]-1-[3-(trifluoromethyl)phenyl]-1,2,4-triazol-3-amine], the fold induction at 1 µM was in the range of 100 to 1000 and the fold induction at 10 µM was in the range of 10 to 100.

As to `COCCC1CCN(c2cc(C)cc(Nc3ncn(-c4cc(F)cc(F)c4)n3)n2)CC1` [Compound 855, N-[1-(3,5-difluorophenyl)-1,2,4-triazol-3-yl]-6-[4-(2-methoxyethyl)-1-piperidyl]4-methyl-pyridin-2-amine], the fold induction at 1 µM fell in the range of 1 to 10 and the fold induction at 10 µM was 1 to 10.

`Cc1cc(Nc2ncn(-c3cc(F)cc(F)c3)n2)c(F)c(OC2CCOC2)c1` (stereo not drawn) [Compound 856, 1-(3,5-difluorophenyl)-N-(2-fluoro-5-methyl-3-tetrahydrofuran-3-yloxy-phenyl)-1,2,4-triazol-3-amine]: the fold induction at 1 µM fell in the range of 10 to 100 and the fold induction at 10 µM was ≤ 1.

On to `Cc1cc(Nc2ncn(-c3cc(F)cc(F)c3)n2)cc(N2CC(N3C[C@@H](C)O[C@H](C)C3)C2)c1` [Compound 857, 1-(3,5-difluorophenyl)-N-[3-[3-[(2R,6R)-2,6-dimethylmorpholin-4-yl]azetidin-1-yl]-5-methyl-phenyl]-1,2,4-triazol-3-amine], for which the fold induction at 1 µM lay in the range of 10 to 100 and the fold induction at 10 µM was in the range of 10 to 100.

`Cc1cc(NCCN2CCOCC2)cc(Nc2ncn(-c3cc(F)cc(F)c3)n2)c1` [Compound 858, N1-[1-(3,5-difluorophenyl)-1,2,4-triazol-3-yl]-5-methyl-N3-(2-morpholinoethyl)benzene-1,3-diamine]: the fold induction at 1 µM fell in the range of 10 to 100 and the fold induction at 10 µM is ≤ 1.

`Fc1ccc(-n2cnc(Nc3cc(C(F)F)cc(N4CCN(C5COC5)CC4)n3)n2)cc1Cl` [Compound 859, N-[1-(3-chloro-4-fluoro-phenyl)-1,2,4-triazol-3-yl]-4-(difluoromethyl)-6-[4-(oxetan-3-yl)piperazin-1-yl]pyridin-2-amine]: the fold induction at 1 µM lay in the range of 1 to 10 and the fold induction at 10 µM is 1 to 10.

As to `CC(F)(F)c1cc(Nc2ncn(-c3cccc(F)c3)n2)nc(N2CCN(C3COC3)CC2)c1` [Compound 860, 4-(1,1-difluoroethyl)-N-[1-(3-fluorophenyl)-1,2,4-triazol-3-yl]-6-[4-(oxetan-3-yl)piperazin-1-yl]pyridin-2-amine], the fold induction at 1 µM was 10 to 100 and the fold induction at 10 µM was in the range of 1 to 10.

For `Cc1c(Nc2ncn(-c3ccccn3)n2)cc(N2CCN(C3COC3)CC2)cc1OC(C)C` [Compound 862, N-[3-isopropoxy-2-methyl-5-[4-(oxetan-3-yl)piperazin-1-yl]phenyl]-1-(2-pyridyl)-1,2,4-triazol-3-amine], the fold induction at 1 µM fell in the range of 1 to 10 and the fold induction at 10 µM is 10 to 100.

Regarding `Clc1cc(Nc2ncn(-c3ccncn3)n2)cc(N2CC(N3CCOCC3)C2)c1` [Compound 863, N-[3-chloro-5-(3-morpholinoazetidin-1-yl)phenyl]-1-pyrimidin-4-yl-1,2,4-triazol-3-amine], the fold induction at 1 µM was in the range of 10 to 100 and the fold induction at 10 µM was in the range of 10 to 100.

For the molecule `Cc1cc(Nc2ncn(-c3cc(F)cc(F)c3)n2)cc(C(=O)N2CCN(C3COC3)CC2)c1` [Compound 864, [3-[[1-(3,5-difluorophenyl)-1,2,4-triazol-3-yl]amino]-5-methyl-phenyl]-[4-(oxetan-3-yl)piperazin-1-yl]methanone], the fold induction at 1 µM was 10 to 100 and the fold induction at 10 µM lay in the range of 10 to 100.

As to `Cc1cc(Nc2ncn(-c3ccc(F)c(F)c3)n2)cc(OCC2CCOC2)c1` (stereo not drawn) [Compound 865, 1-(3,4-difluorophenyl)-N-[3-methyl-5-(tetrahydrofuran-3-ylmethoxy)phenyl]-1,2,4-triazol-3-amine], the fold induction at 1 µM was 1 to 10 and the fold induction at 10 µM is 1 to 10.

Turning to `Cc1cc(Nc2ncn(-c3cc(F)cc(F)c3)n2)cc(N2CC(CN3CCOCC3)C2)c1` [Compound 866, 1-(3,5-difluorophenyl)-N-[3-methyl-5-[3-(morpholinomethyl)azetidin-1-yl]phenyl]-1,2,4-triazol-3-amine], the fold induction at 1 µM was 1 to 10 and the fold induction at 10 µM fell in the range of 10 to 100.

Take `FC(F)c1cc(Nc2ncn(-c3cccc(C(F)(F)F)c3)n2)nc(N2CCOCC2)c1` [Compound 867, 4-(difluoromethyl)-6-morpholino-N-[1-[3-(trifluoromethyl)phenyl]-1,2,4-triazol-3-yl]pyridin-2-amine]: the fold induction at 1 µM was 10 to 100 and the fold induction at 10 µM is 10 to 100.

Consider `Fc1cc(F)cc(-n2cnc(Nc3cc(N4CC(N5CCOCC5)C4)cc(N4CC(N5CCOCC5)C4)c3)n2)c1` [Compound 868, N-[3,5-bis(3-morpholinoazetidin-1-yl)phenyl]-1-(3,5-difluorophenyl)-1,2,4-triazol-3-amine], for which the fold induction at 1 µM was 1 to 10 and the fold induction at 10 µM is 1 to 10.

As to `Cc1cc(Nc2ncn(-c3cc(F)cc(F)c3)n2)c(F)c(NC2(C)COC2)c1` [Compound 869, N3-[1-(3,5-difluorophenyl)-1,2,4-triazol-3-yl]-2-fluoro-5-methyl-N1-(3-methyloxetan-3-yl)benzene-1,3-diamine], the fold induction at 1 µM lay within 10 to 100 and the fold induction at 10 µM fell in the range of 1 to 10.

For `Cc1cc(N2CC(N3CCOCC3)C2)cc(Nc2ncn(-c3cc(F)cc(F)c3)n2)c1F` [Compound 870, 1-(3,5-difluorophenyl)-N-[2-fluoro-3-methyl-5-(3-morpholinoazetidin-1-yl)phenyl]-1,2,4-triazol-3-amine], the fold induction at 1 µM was in the range of 1 to 10 and the fold induction at 10 µM was 1 to 10.

With `Cc1cc(Nc2ncn(-c3cc(F)cc(F)c3)n2)cc(N2CC(C)C(N3CCOCC3)C2)c1` (stereo not drawn) [Compound 871, 1-(3,5-difluorophenyl)-N-[3-methyl-5-(3-methyl-4-morpholino-pyrrolidin-1-yl)phenyl]-1,2,4-triazol-3-amine], the fold induction at 1 µM was 1 to 10 and the fold induction at 10 µM was 1 to 10.

`CCC1COCCN1CCNc1cc(C)cc(Nc2ncn(-c3cc(F)cc(F)c3)n2)c1` (stereo not drawn) [Compound 872, N3-[1-(3,5-difluorophenyl)-1,2,4-triazol-3-yl]-N1-[2-(3-ethylmorpholin-4-yl)ethyl]-5-methyl-benzene-1,3-diamine]: the fold induction at 1 µM fell in the range of 10 to 100 and the fold induction at 10 µM is ≤ 1.

As for `Cc1cc(Nc2ncn(-c3cc(F)cc(F)c3)n2)cc(NC2CCCN(CCF)C2)c1` (stereo not drawn) [Compound 873, N3-[1-(3,5-difluorophenyl)-1,2,4-triazol-3-yl]-N1-[1-(2-fluoroethyl)-3-piperidyl]-5-methyl-benzene-1,3-diamine], the fold induction at 1 µM lay within 1 to 10 and the fold induction at 10 µM was ≤ 1.

As to `Cc1cc(Nc2ncn(-c3cc(F)cc(F)c3)n2)cc(N2CCC(CCO)CC2)c1` [Compound 874, 2-[1-[3-[[1-(3,5-difluorophenyl)-1,2,4-triazol-3-yl]amino]-5-methyl-phenyl]-4-piperidyl]ethanol], the fold induction at 1 µM lay in the range of 10 to 100 and the fold induction at 10 µM is ≤ 1.

Regarding `Cc1cc(Nc2ncn(-c3cc(F)cc(F)c3)n2)cc(N2CCN(C3CCCC3O)CC2)c1` (stereo not drawn) [Compound 875, 2-[4-[3-[[1-(3,5-difluorophenyl)-1,2,4-triazol-3-yl]amino]-5-methyl-phenyl]piperazin-1-yl]cyclopentanol], the fold induction at 1 µM lay within 10 to 100 and the fold induction at 10 µM was ≤ 1.

`[2H]C1([2H])N(c2cc(Nc3ncn(-c4cc(F)cc(F)c4)n3)cc(C(F)F)c2)C([2H])([2H])C([2H])([2H])C([2H])([2H])C1([2H])[2H]` [Compound 876, N-[3-(2,2,3,3,4,4,5,5,6,6-decadeuterio-1-piperidyl)-5-(difluoromethyl)phenyl]-1-(3,5-difluorophenyl)-1,2,4-triazol-3-amine]: the fold induction at 1 µM was 10 to 100 and the fold induction at 10 µM lay within 10 to 100.

In the case of `Cc1cc(Nc2ncn(-c3cc(F)cc(F)c3)n2)cc(N2CCC(CCCO)CC2)c1` [Compound 877, 3-[1-[3-[[1-(3,5-difluorophenyl)-1,2,4-triazol-3-yl]amino]-5-methyl-phenyl]-4-piperidyl]propan-1-ol], the fold induction at 1 µM lay within 1 to 10 and the fold induction at 10 µM is 1 to 10.

Take `Cc1cc(Nc2ncn(-c3cc(F)cc(F)c3)n2)cc(N2CCN(C3CCCCC3O)CC2)c1` (stereo not drawn) [Compound 878, 2-[4-[3-[[1-(3,5-difluorophenyl)-1,2,4-triazol-3-yl]amino]-5-methyl-phenyl]piperazin-1-yl]cyclohexanol]: the fold induction at 1 µM is 10 to 100 and the fold induction at 10 µM was ≤ 1.

For `Cc1cc(Nc2ncn(-c3cc(F)cc(F)c3)n2)cc(N2CCC(N3CCC(O)CC3)CC2)c1` [Compound 879, 1-[1-[3-[[1-(3,5-difluorophenyl)-1,2,4-triazol-3-yl]amino]-5-methyl-phenyl]-4-piperidyl]piperidin-4-ol], the fold induction at 1 µM was ≤ 1 and the fold induction at 10 µM is ≤ 1.

As for `Cc1cc(Nc2ncn(-c3cc(F)cc(F)c3)n2)cc(NC2CCN(CCN3CCOCC3)C2)c1` (stereo not drawn) [Compound 880, N3-[1-(3,5-difluorophenyl)-1,2,4-triazol-3-yl]-5-methyl-N1-[1-(2-morpholinoethyl)pyrrolidin-3-yl]benzene-1,3-diamine], the fold induction at 1 µM was 1 to 10 and the fold induction at 10 µM was ≤ 1.

With `Cc1cc(Nc2ncn(-c3cc(F)cc(F)c3)n2)cc(NC2CN(C3COC3)C2)c1` [Compound 881, N3-[1-(3,5-difluorophenyl)-1,2,4-triazol-3-yl]-5-methyl-N1-[1-(oxetan-3-yl)azetidin-3-yl]benzene-1,3-diamine], the fold induction at 1 µM was 10 to 100 and the fold induction at 10 µM was ≤ 1.
